Results taken from patent US12274703B2, “Compositions and methods of treatment for neurological disorders comprising a dementia” (Gliapharm SA, priority 2017, dated 2025).
Counter-ions that a name gives are not always drawn. Like-named read-outs stand apart in the source and are kept apart here.

Key:
[1] = test system: primary astrocytes; experiment: High throughput screening for lactate secretion: acidification of extracellular medium (SNARF5); assay type: cell-based, mouse; design: key to Score / HTS Score (lactate) / HTS Score (SNARF5) / Score_SNARF: fraction of positive control activity (positive control = 100%); conditions: for Emax at 10 µM: Mus musculus, Astrocyte, 1.5 h; for Score_SNARF: primary screening confirmation (SNARF5)
In short: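 Mouse cortical astrocytes (DIV17) stimulated 90 min at 10 uM compound (1% DMSO) in low-bicarbonate DMEM, 5 mM glucose, with SNARF-5F; extracellular acidification read as 630/580 nm emission ratio (exc 480 nm). Duplicates; score as % of CCCP 2 uM control, hits >3× summed SD above DMSO.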

[2] = test system: astrocytes; experiment: Extracellular lactate quantification; assay type: cell-based, mouse; conditions: for EC50: Mus musculus, Astrocyte; for Score_LACTATE: Appendix I, secondary screening, dosage of extracellular lactate
Experimental: (§1) Primary cultures of cerebrocortical astrocytes were obtained from 1-2-day-old OF1 mouse pups (Charles River Laboratories). Briefly, cortices were isolated and minced in small pieces under a dissecting microscope. The cells were incubated for 30 min at 37° C. in a solution containing 20 U/ml of papain enzyme (Worthington Biochemical), L-cysteine 1 mM (Sigma), and 10 kU/ml DNase I (Worthington Biochemical) for an enzymatic dissociation. Papain activity was stopped by the addition of fetal calf serum (FCS) to the solution, and a single-cell suspension was then obtained by mechanical dissociation, which consisted in cells trituration in a DMEM (D7777, Sigma-Aldrich) medium (supplemented with 44 mm NaHCO3, and 10 ml/L antibiotic/antimycotic solution) containing 10% FCS. The cells were seeded at an average density of 6×10^4 cells/cm^2 in poly-D-lysine-coated 96, 12 or 6-well culture plates, depending on their use, and incubated at 37° C. in a humidified atmosphere containing 5% CO2/95% air. Culture medium was renewed twice per week. Cells were stimulated and harvested between DIV14 and DIV17, when confluence and cell growth were optimal.
Secretion of L-lactate was determined in the extracellular medium of 96-well plated astrocytes after 90 min stimulation (at 37° C., in 5% CO2/95% air conditions) with the drug of interest. The stimulation medium was composed of D5030 medium (completed with D-glucose 5 mM and 44 mM sodium bicarbonate) for 90 min in concentrations ranging from 0 to 100 μM.
Briefly, 200 μl of a Glycine (Sigma)-Semicarbazide (Acros) 0.2M pH 10 buffer containing 3 mM NAD (Roche) and LDH 14 U/ml (Roche) was added to each well of a 96-well plate containing 30 μl aliquots complemented with 20 μl fresh complete D5030 medium. Samples were incubated at 37° C. for 1 h. After samples cooled down at room temperature, the fluorescence intensity (340 nm excitation/450 nm emission) that represents the amount of NADH produced was measured, and lactate concentration values were determined from a standard curve of L-lactate.
Statistical analysis consisted in ANOVA followed by Fisher LSD post-hoc test for pair-wise comparisons.
Levels of lactate secreted by astrocytes were measured in the extracellular medium at 90 min after stimulation with hits (molecules) from the CDC54K library.

[3] = test system: astrocytes; experiment: MTT viability assay; assay type: cell-based; conditions: Mus musculus, Astrocyte, cellular toxicity, 0-200 uM
Experimental: as §1
For cell toxicity determination, astrocytes in 96-well plates were stimulated 24 h (37° C. 5% CO2/95% air) with a gradient ranging from 0.1 to 200 μM of tested compounds. After stimulation, 5 mg/ml thiazol blue tetrazolium bromide (MTT, Sigma-Aldrich) in warm D5030 complete medium was added to each well, and cells were incubated for 4 h at 37° C. (5% CO2). The medium was then removed by aspiration, and the reaction was stopped by the addition of 50 μl DMSO per well.
The amount of reduced MTT (formazan) solubilized in DMSO was then determined spectrophotometrically using absorbance at 570 nm (Safire 2; Tecan).
MTT cellular viability assay was performed on astrocytes exposed to molecules from the Prestwick library (Prestwick hits; concentrations ranging from 0 uM to 200 uM).
MTT cellular viability assay was performed on astrocytes exposed to CDC54K hits (concentrations ranging from 0 uM to 200 uM).

[4] = test system: astrocytes; experiment: Production of H2O2 (mitochondrial activity); assay type: cell-based; conditions: Mus musculus, Astrocyte, 1.5 h; CDC54K hits; 0-200 uM, 90 min
Experimental: as §1
Hydrogene peroxide (H2O2) released in the supernatant is detected enzymatically with Amplex red (Zhou, Diwu et al. 1997). Oxidation of Amplex red is catalysed by the horseradish peroxidase in presence of H2O2 into highly fluorescent resorufin. Fluorescence measure is read at 545 nm extinction, 590 nm emission. The amount of H2O2 was expressed relatively to the proteins content extracted from the cells in culture. […]
Mitochondrial respiration in astrocytes was measured through production of H2O2 at 90 min after stimulation with CDC54K hits (ranging from 0 to 200 uM).

[5] = test system: astrocytes; experiment: Intracellular glycogen quantification; assay type: cell-based, mouse; conditions: 10 μM, 3 h
[6] = Prestwick hits, 10 uM, 90 min, activity relative to positive control CCCP 2 uM, read-out: Score
[7] = Prestwick hits, 10 uM, 90 min, relative to positive control CCCP 2 uM, read-out: HTS Score (lactate)
[8] = 1.5 h, Prestwick hits, 0-100 μM, 90 min, read-out: Lactate EC50
[9] = Appendix I, primary screening, 10 uM, 90 min, relative to positive control, read-out: Score
[10] = CDC54K hits, 10 uM, 90 min, relative to positive control CCCP 2 uM, read-out: HTS Score (SNARF5)
[11] = 1.5 h, CDC54K hits, 0-100 uM, 90 min, read-out: Lactate EC50
[12] = Appendix I, primary screening, 10 uM, 90 min, relative to positive control
[13] = CDC54K hits, 10 uM, 90 min, relative to positive control CCCP 2 uM

Structure (SMILES)	EC50 [2, 8] [µM]	IC50 [4] [µM]	EC50 [2, 11] [µM]	Emax at 10 µM [1, 6] [%]	Emax at 10 µM [1, 7] [%]	IC50 ([3]; Prestwick hits, 24 h) [µM]	IC50 ([3]; CDC54K hits) [µM]	also measured
COC1=C(OC)C(=O)C(CCCCCCCCCCO)=C(C)C1=O [Idebenone]	0.602			25.9	25.9	112		
COc1cccc(CNS(=O)(=O)c2ccc3c(c2)CCCN3C(C)=O)c1 [T5967389]		> 200	23.5				> 200	Emax at 10 µM [1, 9]: 79%; Emax at 10 µM [1, 10]: 79%; EC50 ([2]; Appendix II, lactate secretion, read-out: EC50): 9.67 µM
O=C(COc1ccc(Cl)cc1)N1CCN(Cc2ccc3c(c2)OCO3)CC1 [Fipexide hydrochloride]	5.16			16.6	16.6	44		Glycogen (statistical significance of glycogen degradation) ([5]; Prestwick hits): ns
Cc1c(C)c2c(c(C)c1O)CCC(C)(COc1ccc(CC3SC(=O)NC3=O)cc1)O2 (stereo not shown) [Troglitazone]	2.57			27	27	106		
CSc1cccc(NS(=O)(=O)c2ccc3onc(C(=O)N4CCCC4)c3c2)c1 [L995-0125]		173	2				> 200	Glycogen (statistical significance of glycogen degradation) ([5]; CDC54K hits): ns; Score_SNARF ([1]; Appendix I): 0.8016; Score [1, 12]: 0.8545; HTS Score (SNARF5) [1, 13]: 0.854; Score_LACTATE [2]: 0.9122
CCc1ccc(S(=O)(=O)Nc2ccc3[nH]ncc3c2)cc1 [T5599014]		158	8.8				> 200	Glycogen (statistical significance of glycogen degradation) ([5]; CDC54K hits): ns; Score_SNARF ([1]; Appendix I): 0.5778; Score [1, 12]: 0.5424; HTS Score (SNARF5) [1, 13]: 0.542; Score_LACTATE [2]: 0.4419
[H]/N=C(\N/C(=N/[H])Nc1ccc(Cl)cc1)NC(C)C [Proguanil hydrochloride]	0.854			55.5	55.5	48.1		
O=c1n(CCCN2CCN(c3cccc(Cl)c3)CC2)nc2ccccn12 [Trazodone hydrochloride, trazodone, reference compound]								Glycogen (statistical significance of glycogen degradation) ([5]; Prestwick hits): ns; Score ([1]; Prestwick hits, 10 uM, 90 min, activity relative to positive control CCCP 2 uM): 0.08377; HTS Score (lactate) ([1]; Prestwick hits, 10 uM, 90 min, relative to positive control CCCP 2 uM): 0.084
C#C[C@]1(O)CC[C@H]2[C@@H]3[C@H](C)CC4=C(CCC(=O)C4)[C@H]3CC[C@@]21C [Tibolone]	2.23			22.7	22.7	60.7		
CCc1ccc(S(=O)(=O)N2CCSC2c2ccc(OC)c(OC)c2)cc1 (stereo not shown) [T5463586]		> 200	10				> 200	Score_SNARF ([1]; Appendix I): 0.5553; Score [1, 12]: 0.7707; HTS Score (SNARF5) [1, 13]: 0.77; Score_LACTATE [2]: 0.3936
Fc1ccc(-c2cc3n(n2)CCCN(Cc2ccncc2)C3)cc1 [T202-1455]		> 200	15				> 200	Glycogen (statistical significance of glycogen degradation) ([5]; CDC54K hits): ns; Emax at 10 µM [1, 9]: 97.1%; Emax at 10 µM [1, 10]: 97.1%
COc1ccc(Cc2nccc3cc(OC)c(OC)cc23)cc1OC [Papaverine hydrochloride]	0.629			35.5	35.5	> 200		

The next lines start with results.

EC50 [2, 8] [µM]	IC50 [4] [µM]	EC50 [2, 11] [µM]	Structure (SMILES)	Emax at 10 µM [1, 6] [%]	Emax at 10 µM [1, 7] [%]	IC50 ([3]; Prestwick hits, 24 h) [µM]	IC50 ([3]; CDC54K hits) [µM]	also measured
12.2			CC[N+](CC)(CC(=O)Nc1c(C)cccc1C)Cc1ccccc1 [Denatonium benzoate]	11	11	178		
11.7			CC(C)[N+](C)(CCOC(=O)C1c2ccccc2Oc2ccccc21)C(C)C [Propantheline bromide]	49.1	49.1	12.8		
1.17			C[N+]1(C)CCC(=C(c2ccccc2)c2ccccc2)CC1 [Diphemanil methylsulfate]	48.4	48.4	13.9		
	> 200	10.2	CC(=O)c1cccc(NC(=O)C(C)Sc2ncnc3ccccc23)c1 (stereo not shown) [T0511-9200]				> 200	Glycogen (statistical significance of glycogen degradation) ([5]; CDC54K hits): ns; Emax at 10 µM [1, 9]: 84.4%; Emax at 10 µM [1, 10]: 84.4%
	> 200	2	COc1ccccc1NC(=O)Cc1nn(C)c(=O)c2ccccc12 [K851-0113]				> 200	Glycogen (statistical significance of glycogen degradation) ([5]; CDC54K hits): ns; Emax at 10 µM [1, 9]: 72.2%; Emax at 10 µM [1, 10]: 72.2%
2.73			N=C(N)N1CCc2ccccc2C1 [Debrisoquin sulfate]	23.8	23.8	> 200		
